Experiment [1] has as its system M. tuberculosis H37Rv. On the set-up: method as in PMID 32750539, PMID 29900893. The following applies: previous reports; ref [30],[31]; cited from earlier work.
Experiment [2] has as its system M. tuberculosis H37Rv. Briefly: Checkerboard assay (REMA read-out). In kind it is cell-based, Mycobacterium tuberculosis. The conditions noted are these: for MIC: Mycobacterium tuberculosis, H37RV, 168 h, checkerboard, agent alone; for MIC / MIC, Combined: REMA read-out, 7 days.
The subject of experiment [3] is M. tuberculosis. The following applies: cited from earlier work.
Experiment [4] concerns M. tuberculosis H37Rv. The conditions noted are these: 3 h, 100 µg/mL.
Experiment [5] relates to M. tuberculosis. The conditions noted are these: Kinetic killing assay; ref [22]; cited from earlier work. The text has this: Table 6 The general characteristics and the previously reported MIC of each antimicrobial peptide used in this study. | column: MIC (µg/mL)

Molecules are shown by their SMILES. In brackets after ≈: the same amount, converted by molar mass. Read-outs that look alike come from different tables or passages of the source. Residues, ends and D or L forms follow the SMILES beside them.

Take `CO[C@H]1/C=C/O[C@@]2(C)Oc3c(C)c(O)c4c(O)c(c(/C=N/N5CCN(C)CC5)c(O)c4c3C2=O)NC(=O)/C(C)=C\C=C\[C@H](C)[C@H](O)[C@@H](C)[C@@H](O)[C@@H](C)[C@H](OC(C)=O)[C@@H]1C` [RF, rifampicin]: the MIC (usually the lowest concentration found to suppress growth) with M. tuberculosis H37Rv [1] is 0.12 to 0.5 µg/mL; with M. tuberculosis H37Rv [2] it was 0.5 µg/mL. In addition, in the experiment on M. tuberculosis H37Rv [2] (combination RF + D-hLF 1-11), the “MIC, Combined” value was 0.031 25 µg/mL.

Consider `CC(C)C[C@H](NC(=O)[C@H](CCCNC(=N)N)NC(=O)CNC(=O)CNC(=O)[C@@H](N)CCCNC(=N)N)C(=O)N[C@H]1CSSC[C@@H](C(=O)N[C@H](C(=O)NCC(=O)N[C@@H](CCCNC(=N)N)C(N)=O)C(C)C)NC(=O)[C@H](C(C)C)NC(=O)[C@@H]2CSSC[C@H](NC(=O)[C@H](Cc3ccc(O)cc3)NC1=O)C(=O)N[C@@H](CCCNC(=N)N)C(=O)N[C@@H](CCCNC(=N)N)C(=O)N[C@@H](CCCNC(=N)N)C(=O)N[C@@H](Cc1ccccc1)C(=O)N2` [PG-1], for which the “percent of mycobacterial growth inhibition” value is 96.7% in the experiment with M. tuberculosis [3] (128 µg/mL, ref [3] Fattorini and colleagues); “approximately 94.22%” in the experiment on M. tuberculosis H37Rv [4]. Moreover, in the experiment with M. tuberculosis [3] (Plate count assay, ref [3]), the MIC is 128 µg/mL (≈ 59.4 µM).

For the molecule `CC(C)C[C@H](NC(=O)[C@H](CC(C)C)NC(=O)[C@H](CCCCN)NC(=O)[C@H](CCCCN)NC(=O)[C@@H](NC(=O)[C@H](C)N)C(C)C)C(=O)N[C@@H](CCCNC(=N)N)C(=O)N[C@@H](Cc1c[nH]c2ccccc12)C(=O)N[C@@H](Cc1c[nH]c2ccccc12)C(=O)N[C@@H](CO)C(=O)N[C@@H](CCCNC(=N)N)C(=O)N[C@@H](Cc1c[nH]c2ccccc12)C(=O)N[C@@H](Cc1c[nH]c2ccccc12)C(=O)N[C@@H](CCCCN)C(=O)N[C@@H](CCCCN)C(=O)O` [AK 15-6] (H-AVKKLLRWWSRWWKK-OH; N-terminus and C-terminus assumed), in the experiment with M. tuberculosis [5], the MIC was 37.5 µg/mL (≈ 18.1 µM).

For the molecule `NNC(=O)c1ccncc1` [INH, isoniazid], in the experiment with M. tuberculosis H37Rv [1], the MIC is 0.03 to 0.12 µg/mL. In the experiment with M. tuberculosis H37Rv [2], the MIC was 0.025 µg/mL. Besides, in the experiment on M. tuberculosis H37Rv [2] (combination INH + D-hLF 1-11), the FIC is 0.48 and the “MIC, Combined” value is recorded as 0.012 µg/mL.

The values above are taken from PMC9774897 (Antibiotics, 2022).
